Assay results: patent publication US20090053139A1, “Dendrimer based compositions and methods of using the same” (Regents of the University of Michigan, priority 2006, published 2009)

Legend:
KB cells = test: Inhibition of KB cell growth (XTT assay / total cell protein); assay type: cell-based, human
Description: Cell culture and treatment.
Evaluation of dendrimer cytotoxicity. Cell growth was determined by assay of the total protein in lysates of treated cells using a bicinchoninic acid reagent (PIERCE, and by XTT assay, using a kit from Roche.
Because the binding of the conjugate to KB cells reaches maximal uptake within 1 h (Quintana et al, 2002. Pharmaceutical Research 19: 1310-1316), the effect of the G5-FI-FA-MTX on cell growth was initially tested by pre-incubation of cells with the conjugate for 1 h, followed by incubation in a drug-free medium for 5 d. […] When the cells were pre-incubated with dendrimers for 4 h, there was a modest decrease of about 10% in cell growth as determined by XTT assay. The cytotoxicity measurements were therefore done by incubation with the dendrimer for a minimum of 24 h, a pre-incubation time period shown to induce significant cytotoxicity.
Time course and dose dependent inhibition of cell growth. Previous studies have shown that MTX-induced cytotoxicity is detectable in vitro only if the medium is completely deprived of FA (See, e.g., Sobrero & Bertino, Int. J. Cell Cloning 4, 51 (1986)). The effect of the trifunctional dendrimers on cell growth was tested in cells incubated in a FA-deficient medium. Cells were treated with 300 nM conjugates (equivalent of 1500 nM MTX) or 1500 nM free MTX for 1-4 days, and cell proliferation was determined by estimation of cellular protein content. […] KB cells which express high and low FAR were incubated with 30 nM of the dendrimers for 1 hr at 37° C., rinsed, and the fluorescence of cells was determined by flow cytometric analysis (See. e.g., FIG. 21, left panel). […]
As the G5-FITC-FA-MTX preparation contained equimolar concentrations of MTX and FA, the effect of similar concentrations of free MTX and free FA on the inhibition of cell growth was determined. […] The cells were rinsed to remove the drugs and incubated with fresh medium for an additional 6 d, and total cell protein was determined. […]

[1] = Toxicity of dendrimer conjugates and free methotrexate in SCID mice; assay type: in vivo
From the text: (§1) Delivery of targeted nanoparticle therapeutic.
Toxicity of dendrimer conjugates. […] No morphologic abnormalities were observed on the histopathology examination.
The remaining experimental groups had very uniform body weight fluctuations nonindicative of toxicity when compared with control groups with saline or conjugate without methotrexate.

human KB xenografts = test: Tumor growth and survival of SCID mice bearing s.c. human KB xenografts; assay type: in vivo
Description: as §1
Targeted drug delivery to tumor cells through the folate receptor. The efficacy of different doses of conjugates was tested on SCID CB-17 mice bearing s.c. human KB xenografts and was compared with equivalent and higher doses of free methotrexate. […] Six groups of SCID mice with five mice in each group were injected s.c. on one flank with 5×10^6 KB cells in 0.2 mL PBS suspension. The highest total dose of G5-FI-FA-MTX therapeutic used equals 55.0 mg/kg and is equivalent to a 5.0 mg/kg total cumulative dose of free methotrexate (FIG. 29). The therapeutic dose of the conjugate was compared with three cumulative doses of free methotrexate equivalent to 33.3, 21.7, and 5.0 mg/kg accumulated in 10 to 15 injections based on mouse survival. Saline and the conjugate without methotrexate (G5-FI-FA) were used as controls.
The equivalent dose of methotrexate delivered with both targeted conjugates to the surviving mice was higher than the dose of free methotrexate because all of the mice receiving free methotrexate died by day 66 of the trial (FIG. 30). The survival of mice from groups receiving G5-FI-FA-MTX or G5-FA-MTX conjugate indicate that tumor growth based on the end-point volume of 4 cm3 can be delayed by at least 30 days (FIG. 30). This value indicates the antitumor effectiveness of the conjugate because it mimics clinical end-points and requires observation of the mice throughout the progression of the disease. […] The tumor in this mouse was not palpable for the next 20 days up to the 60th day of the trial. […] Thus, in some embodiments, the present invention provides a composition comprising a dendrimer comprising a targeting agent, a therapeutic agent and an imaging agent. In preferred embodiments, the dendrimer is used for delivery, in a target specific manner, of a therapeutic agent (e.g., methotrexate) to tumor cells in vivo.

Structure (SMILES)	reversal of MTX-induced growth arrest by free FA (KB cells; 150 nM FA with 150 nM MTX, 24 h, then 6 d, total cell protein)	liver histopathology ([1]; mouse, in vivo)	toxicity (body weight) ([1]; total dose equivalent to 5.0 mg/kg free methotrexate)	inhibition of cell growth (XTT assay) (KB cells; 1, 2 or 3 days)	growth inhibition of free MTX versus equimolar MTX in conjugate (KB cells; below 1 μM)	effect on tumor growth (human KB xenografts; cumulative dose equivalent to 5.0 mg/kg methotrexate (G5-FI-FA equimolar dendrimer))	effect on tumor growth (human KB xenografts; free methotrexate cumulative 33.3 and 21.7 mg/kg)	survivors at termination of the trial (human KB xenografts; second 99-day trial)
Nc1nc2ncc(CNc3ccc(C(=O)N[C@@H](CCC(=O)O)C(=O)O)cc3)nc2c(=O)[nH]1 [FA, Folic Acid]	almost completely reversed the growth-arrest caused by 150 nM MTX	–	–	–	–	–	–	–
CN(Cc1cnc2nc(N)nc(N)c2n1)c1ccc(C(=O)N[C@@H](CCC(=O)O)C(=O)O)cc1 [MTX, Methotrexate]	–	advanced liver lesions, collections of inflammatory cells, and periportal inflammation	neither the total accumulated dose of therapeutic conjugate equivalent to 5.0 mg/kg free methotrexate nor free methotrexate at the same dose were toxic	time-dependent cytotoxicity	higher than with the equimolar concentrations of MTX in the G5-FITC-FA-MTX	no effect on tumor growth	affecting tumor growth	no mice surviving
